Here are results for 7 compounds from ChEMBL document CHEMBL1143375 (Bioorg Med Chem Lett, 2009).

Assay [1] deals with T1, Prostaglandin G/H synthase 2 (Homo sapiens, UniProt P35354).
T1 sequence (P35354 whole entry): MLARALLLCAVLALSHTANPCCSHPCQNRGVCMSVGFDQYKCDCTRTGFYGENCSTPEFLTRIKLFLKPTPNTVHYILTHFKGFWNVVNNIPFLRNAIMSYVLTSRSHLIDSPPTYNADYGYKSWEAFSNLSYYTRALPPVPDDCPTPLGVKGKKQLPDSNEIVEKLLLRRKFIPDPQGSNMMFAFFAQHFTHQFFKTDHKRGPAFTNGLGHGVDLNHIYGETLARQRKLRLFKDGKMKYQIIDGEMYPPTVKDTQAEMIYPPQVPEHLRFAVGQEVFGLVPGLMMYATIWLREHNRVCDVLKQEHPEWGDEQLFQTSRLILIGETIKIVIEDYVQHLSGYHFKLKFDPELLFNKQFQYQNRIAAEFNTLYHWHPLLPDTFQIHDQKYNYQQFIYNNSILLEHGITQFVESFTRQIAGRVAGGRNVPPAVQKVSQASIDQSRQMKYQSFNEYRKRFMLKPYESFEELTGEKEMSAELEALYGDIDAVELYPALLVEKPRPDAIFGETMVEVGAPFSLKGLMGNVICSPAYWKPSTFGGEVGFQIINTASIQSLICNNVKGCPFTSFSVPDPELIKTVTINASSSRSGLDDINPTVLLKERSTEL
In words: Inhibition of human recombinant COX2 by enzyme immuno assay.

Assay [2] is described as follows: Inhibition of potato LOX5. Further details: species or system Solanum tuberosum.
Another assay concerns Rattus norvegicus. In words: Antiinflammatory activity in orally dosed rat assessed as inhibition of carrageenan-induced paw edema after 3 hrs. The class given is functional. Particulars: po. (In general: Carrageenan injected into the paw causes an acute inflammation.)
The target in assay [3] is T2, Prostaglandin G/H synthase 1 (Ovis aries, UniProt P05979).
T2 sequence (P05979 whole entry): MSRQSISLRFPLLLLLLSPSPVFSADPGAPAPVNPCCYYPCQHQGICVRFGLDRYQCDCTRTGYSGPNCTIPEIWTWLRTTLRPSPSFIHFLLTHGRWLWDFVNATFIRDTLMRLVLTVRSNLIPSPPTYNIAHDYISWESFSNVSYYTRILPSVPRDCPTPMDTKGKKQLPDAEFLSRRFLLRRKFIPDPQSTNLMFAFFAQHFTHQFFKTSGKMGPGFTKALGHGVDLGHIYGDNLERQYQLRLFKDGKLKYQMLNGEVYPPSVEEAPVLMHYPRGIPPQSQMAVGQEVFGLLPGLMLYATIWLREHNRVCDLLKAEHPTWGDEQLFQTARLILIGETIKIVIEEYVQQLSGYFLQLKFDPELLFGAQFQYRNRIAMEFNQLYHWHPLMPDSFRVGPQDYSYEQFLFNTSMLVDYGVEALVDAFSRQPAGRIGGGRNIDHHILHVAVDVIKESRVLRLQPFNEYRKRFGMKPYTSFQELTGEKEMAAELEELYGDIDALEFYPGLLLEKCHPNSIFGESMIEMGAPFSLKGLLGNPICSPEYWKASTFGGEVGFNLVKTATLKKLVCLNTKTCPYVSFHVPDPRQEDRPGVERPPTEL
Description: Inhibition of ovine COX1 by enzyme immuno assay

Bounds are passed on as bounds.

What is called IC50 is the concentration at which inhibition is half-maximal. In general, ED50 refers to the dose at which the effect has come halfway, by size or by number of responders.

Turning to `CS(=O)(=O)c1ccc(C#Cc2ccc(=O)n(C(F)F)c2)cc1`, the half-maximal inhibitory concentration (IC50) in assay [1] came to 5.1 µM; in assay [2], 3.3 µM; in assay [3] it was 14.1 µM. In the assay with Rattus norvegicus, the median effective dose (ED50) stood at 68.5 mg/kg.
On to `CS(=O)(=O)c1ccccc1C#Cc1ccc(=O)n(C(F)F)c1`, for which the results for the IC50 in assay [1], in assay [2] and in assay [3] were 9.4 µM, 3.4 µM and above 100 µM, respectively. Further, the ED50 in the assay on Rattus norvegicus was above 100 mg/kg.
As for `CS(=O)(=O)c1cccc(C#Cc2ccc(=O)n(C(F)F)c2)c1`, the IC50 in assay [1] was determined as 3.7 µM; in assay [2], 3.2 µM; in assay [3], 32.4 µM. The median effective dose (ED50) in the assay on Rattus norvegicus worked out at 66.1 mg/kg.
On to `CC(C)Cc1ccc(C(C)C(=O)O)cc1` (centres undefined) [IBUPROFEN], for which the ED50 in the assay with Rattus norvegicus stood at 67.4 mg/kg.
Turning to `NS(=O)(=O)c1ccc(C#Cc2ccc(=O)n(C(F)F)c2)cc1`, the IC50 came to 6 µM in assay [1], 3.5 µM in assay [2] and 5.2 µM in assay [3]. The ED50 in the assay with Rattus norvegicus turned out to be 86.5 mg/kg.
As to `CC(=O)Oc1ccccc1C(=O)O` [ASPIRIN], the ED50 with Rattus norvegicus is 129 mg/kg.
The compound `O=C(O)/C=C/c1ccc(O)c(O)c1` [CAFFEIC ACID] displayed an IC50 in assay [2] of 4 µM.
